The source of these data is patent US20230348578A1, “CONFORMATION-SPECIFIC ANTIBODIES THAT BIND TAU PROTEIN AND USES THEREOF” (Beth Israel Deaconess Medical Center, Inc., priority 2020, published 2023).

Molecules are shown by their SMILES. Where a SMILES comes first, the peptide text is derived from it. The star is where a group is joined. Cbz = O=C(OCc1ccccc1)*; CH2F = FC*

The subject of this test is primary neurons. The test is described as follows: Death of primary neurons with purified cis P-tau. It is filed as cell-based.

`COC(=O)C[C@H](NC(=O)[C@H](C)NC(=O)[C@@H](NC(=O)OCc1ccccc1)C(C)C)C(=O)CF` [Z-VAD-FMK] (Cbz-Val-Ala-Asp(OMe)-CH2F): the “death in primary neurons induced by purified cis P-tau” value is on record as “blocked”.
